# According to PMC8485325, “Penetrating the Blood-Brain Barrier with New Peptide–Porphyrin Conjugates Having anti-HIV Activity” (Bioconjugate Chemistry, 2021):
# Like-named read-outs stand apart in the source and are kept apart here. Ends that are not written are not given here.
# What was measured:
# bEnd.3 cell monolayers [1] = tested on: bEnd.3 cell monolayers
# Method: (§1) Figure 4 PPCs translocation across a bEnd.3 in vitro BBB model. (A) bEnd.3 in vitro BBB model transwell system. The insert, or apex, corresponds to the blood side, while the base (bottom chamber) corresponds to the brain side. (B) After formation of a monolayer, 10 μM of each conjugate was added to the apical side of the tissue culture inserts. After incubation for 24 h, samples from the basolateral side were collected, and the percentage of translocation of each conjugate (black) was calculated. FD4 permeability (gray) was measured to determine monolayer integrity post-PPCs translocation.
# After 24 h incubation with conjugates, an in vitro integrity assay was performed.[19] Briefly, cells were washed twice with PBS and once with DMEM medium without phenol red. Then, previously diluted 4 kDa fluorescein isothiocyanate-dextran (FD4) (Sigma-Aldrich, Spain) in DMEM without phenol red to an absorbance of 0.1 was added to the apical side and incubated for 2 h. Samples were collected from the apical and basolateral side, and fluorescence intensity was measured with λext = 493 nm and λem = 520 nm, using a Varioskan Lux plate reader. The integrity of the barrier was determined as follows: [drawing 2] 2 where Fi is the recovered fluorescence intensity, Fcells is the recovered fluorescence intensity from cells without FD4 incubation, FFD4 is the fluorescence intensity of total FD4 initially added to the transwell apical side, and FMedium is the fluorescence intensity of DMEM medium without phenol red.
# [2] = Cell viability assay (CellTiter-Blue); format: cell-based, murine; conditions: for CC50 at 24 h: mouse
# Method: (§2) bEnd.3 cells were plated in fibronectin precoated 96-well flat-bottom clear black polystyrene plate (Corning, New York, USA) as previously described. Cells were then cultured in complete medium at 37 °C in a 5% CO2 atmosphere, with medium replaced every 2 days. […] Viability was evaluated by the CellTiter-Blue assay (Promega, Wisconsin, USA), based on resazurin reduction into highly fluorescent resorufin by metabolically active cells. By distinguishing metabolic from nonmetabolic cells, cytotoxicity can be indirectly determined. After incubation, cells were washed with PBS, pH 7.4, and 15 μL of CellTiterBlue reagent in 100 μL of complete medium was added to the cells and incubated for 1.5 h at 37 °C in 5% CO2. Fluorescence was measured at 590 nm, with excitation at 560 nm, using an Infinite F200 plate reader (Tecan, Switzerland). Complete medium and medium containing 0.25% Triton X-100 were used as positive and negative controls (100% and 0% viability), respectively. Cell viability (%) was determined using the following equation: [drawing 5] 5 where […] is the fluorescence emission of conjugate-treated cells, Fnontreated is the fluorescence emission of the control nontreated cells, and Fblank is the fluorescent emission of CellTiter reagent in complete medium without cells.
# bEnd.3 cell monolayers [3] = test: In vitro BBB translocation assay (bEnd.3 transwell model)
# Description: Assessment of PPC efficacy in BBB translocation was done in a transwell setup (Figure 4A) using bEnd.3 cell monolayers.[44] The bEnd.3 in vitro BBB model consists of a monolayer of cells expressing a range of essential BBB transporters, also bearing the low permeability characteristic of the BBB, suitable for this study.[44]−[46]
# as §1
# An in vitro BBB model consisting of endothelial cells growing on the apical side of a porous membrane was used.[46] bEnd.3 cells (ATTCC-CRL2299) were cultured as a monolayer on T-flasks in DMEM supplemented with 10% fetal bovine serum (FBS), 1% penicillin/streptomycin. Cells were grown in a humidified atmosphere of 5% CO2 at 37 °C (MCO-18AIC (UV), Sanyo, Japan) with the medium changed every other day. Cells were allowed to grow until confluence in a culture T-flask, and then carefully harvested with trypsin-EDTA and seeded (3500 cells/well) onto fibronectin-coated tissue culture 24-well inserts (transparent polyester membrane with 1.0 μm pores) (BD Falcon, USA). The medium was changed every other day for 10 days, after which cells were washed twice with 1× PBS and once with DMEM medium without phenol red. Next, conjugates diluted in DMEM without phenol red to a final concentration of 10 μM were added to the apical side of the in vitro BBB model (Figure 4A). Experiments were performed on different days using independently grown cell cultures.
# The translocation of conjugates was determined by fluorescence intensity (λexc = 380 nm and λem = 625 nm for MP conjugates, and λexc = 380 nm and λem = 675 nm for PP conjugates). P3-CF and P5-CF, peptides labeled with 5(6)-Carboxyfluorescein (CF), were used as positive translocation controls (λexc = 492 nm and λem = 517 nm). After 24 h incubation, samples from the apical and basolateral side were collected and analyzed. Fluorescence was measured using a Varioskan Lux plate reader (Thermo Scientific, MA, USA). The percentage (%) of translocation was calculated using the following equation: [drawing 1] 1 where Fi is the recovered fluorescence intensity, Fcells is the recovered fluorescence intensity from cells without the conjugate, and Fconjugate is the fluorescence intensity of total peptide initially added to the transwell apical side.
# HIV-1NL4-3 = test: In vitro inhibition of HIV-1NL4-3 infection of TZM-bl cells (luciferase reporter); format: cell-based
# Method: Viral supernatants harvested from pNL4-3-transfected HEK293T cells were titered through the Reed-Muench method[56] based on HIV-1NL4–3 infectivity against TZM-bl cell cultures. TZM-bl cells were seeded at 2 × 10^4 cells/well in tissue culture-treated 96-well microplates from Corning (Corning, NY, USA), and incubated for 24 h. Cells were then incubated with 2-fold serial dilutions of viral supernatants for 3 h, after which the supernatant was replaced with fresh complete medium. After 45 h, TZM-bl cell infection was quantified through luciferase reporter-gene expression levels, under the control of an HIV-1 TAT-dependent LTR promoter[57] using the Luc-Screen luciferase chemiluminescence detection system. Luminescence was measured in an Infinite M200 microplate reader from Tecan (Männedorf, Switzerland). […] Titration was performed with at least four replicates to allow accurate estimation of TCID50 in viral supernatants.
# The inhibitory activity of conjugates on HIV-1NL4–3 entry into TZM-bl cells was evaluated as previously described.[58] TZM-bl cells were seeded at 2 × 10^4 cells/well in tissue culture-treated 96-well microplates and incubated for 24 h. HIV-1NL4–3 viral supernatants (100 or 10 TCID50/well) were then incubated for 1 h with 2-fold serial dilutions of either nonconjugated peptide and porphyrins or conjugates, after which the infection mixture was added to TZM-bl cells. Untreated cells (in the absence of peptide–porphyrin conjugate) were used as control. Virions were incubated with cells for 3 h, after which cells were washed to remove unbound virions and new medium was added. After 45 h, infection was quantified by the Luc-Screen chemiluminescence assay. Measurements were performed in an Infinite M200 microplate reader. […] At least three independent experiments were performed for each assay.
# human erythrocytes = test: Hemolysis assay; format: cell-based
# Method: Plates were incubated for 1 h at 37 °C with 100 rpm stirring, then centrifuged for 5 min at 4000 rpm, 4 °C, and supernatants were transferred to a 96-well flat-bottom polystyrene plate (Corning). Hemolysis was assessed by hemoglobin (Hb) release, measured by absorbance at 415 nm in a Varioskan LUXTM microplate reader (Thermo Fisher Scientific, Inc.). As porphyrin and Hb spectra are partially overlapping, to exclude porphyrin interference in Hb quantification a blank reading of each PPC (no hRBCs, TN buffer +1% DMSO) was subtracted from each measurement. TN buffer (+1% DMSO, no conjugate) and hRBCs with 1% Triton X-100 were used as negative and positive controls, respectively. Hemolysis (%) was determined using the following equation: [drawing 6] 6 where Abstreated is the absorbance of hRBC treated with the conjugates, Absconjugate is the absorbance from each conjugate concentration without hRBCs, AbsTriton is the absorbance of Triton X-100 treated hRBCs, and Absbuffer is the absorbance of TN buffer alone. HC50 values were determined by GraphPad Prism 8 software using a log(inhibitor) vs normalized response (variable slope). Experiments were performed using 3 different blood donors.
# bEnd.3 cells = test: Cell viability assay (CellTiter-Blue); format: cell-based, murine
# Method: as §2
# TZM-bl cells = format: cell-based
# Method: TZM-bl Cell Viability Studies
# The cytotoxic effects of each PPC on TZM-bl cell cultures were assessed to ensure that HIV inhibition was a result of the compounds effect on the virus and not on the host cells used in the assay. A resazurin reduction fluorometric assay was performed. Resazurin, the active compound in alamarBlue®, is a blue dye that can be reduced to a pink fluorescent intermediate, resorufin, as a result of cell metabolic activity.6 TZM-bl cells were seeded at 2x10^4 cells/well in tissue culture-treated 96-well microplates and incubated for 24 h. Cells were then incubated with serial dilutions (2-fold) of single peptide and porphyrins, or PPC, for 3 h, after which the mixture was replaced with fresh complete medium. Untreated cells (in the absence of peptide-porphyrin combinations) were used as a control. After 42 h, media was replaced with alamarBlue® reagent and incubated for an additional 3 h. Resazurin reduction was quantified by resorufin fluorescent emission intensity, measured in an Infinite M200 microplate reader. Fluorescence emission intensity was collected at 590 nm, using a fixed λ exc of 560 nm. Excitation and emission slits were 9 and 20 nm, respectively. Cell viability was calculated through the following formalism: […]
# where I EI corresponds to the resorufin fluorescence emission intensity in the presence of EIs or combination, I control to the fluorescence emission intensity in the absence of EIs and I background to the background fluorescence emission from the non-reduced […]
# P5, P4-MP, MP-L-P3 and P4-L-M - are presented here.
# TZM-bl cell viability on the concentration range tested.
# (1 picture or pasted object on this page, not shown here)
# Figure S7. PPCs cytotoxic effects against TZM-bl cells. A resazurin reduction fluorometric assay, dependent on the cell metabolic activity, was used. Cell viability, normalized to the control in the absence of PPC, was measured against three concentrations of each individual PPC: MP-P3 (black), MP-P5 (white), P4-MP (red), MP-L-P3 (blue) and P4-L-MP (green).
compound,measurement,setting,value
"O=C(O)CN(CCOCCOCCN(CC(=O)O)CC(=O)O)CC(=O)O [EGTA, reference compound]","% Base (RFI), FD4 Permeability (monolayer integrity post-translocation)",bEnd.3 cell monolayers [1],26.8%
"CCC1=C(C)c2cc3[nH]c(cc4nc(cc5[nH]c(cc1n2)c(C)c5CCC(=O)O)C(CCC(=O)O)=C4C)c(C)c3CC [MP, mesoporphyrin IX, reference compound]",CC50 at 24 h,"[2]; bEnd.3 cells, 24 h, 6.25–50 μM range",> 50 µM
same,BBB translocation (in words),bEnd.3 cell monolayers [3]; bEnd.3 monolayer in vitro model,translocated the monolayer
same,IC50,"HIV-1NL4-3; Human immunodeficiency virus 1, 100 TCDI50 per well, TZM-bl cells, no-light, read-out: IC50 HIV inhibition, 100 TCDI50",> 50 µM
same,HC50: 50% lytic concentration for human erythrocytes,"human erythrocytes; 1 h at 37 °C, 0.1–50 μM range",>50 µM
"C=CC1=C(C)c2cc3[nH]c(cc4nc(cc5[nH]c(cc1n2)c(C)c5CCC(=O)O)C(CCC(=O)O)=C4C)c(C)c3C=C [PP, protoporphyrin IX, reference compound]","% Base (RFI), FD4 Permeability (monolayer integrity post-translocation)","bEnd.3 cell monolayers [1]; mouse, 2 h, 10 μM",8.7%
same,CC50 at 24 h,[2],> 50 µM
same,BBB translocation (in words),bEnd.3 cell monolayers [3],translocated the monolayer
same,"% Base (RFI), Translocation","bEnd.3 cell monolayers [3]; mouse, 24 h, 10 μM",38.3%
same,IC50,"HIV-1NL4-3; Human immunodeficiency virus 1, TZM-bl, read-out: IC50 HIV inhibition, 100 TCDI50",> 50 µM
same,HC50: 50% lytic concentration for human erythrocytes,"human erythrocytes; human, 1 h, pH 7.4",>50 µM
"H-AGILKRW-NH2 [P3, AGILKRW-amide, reference compound]",CC50,"[2]; 24 h, 6.25–50 μM range",> 50 µM
same,HC50: 50% lytic concentration for human erythrocytes,"human erythrocytes; 1 h at 37 °C, 0.1–50 μM range",>50 µM
"H-SGTQEEY-NH2 [P5, SGTQEEY-amide, reference compound]",CC50,[2],> 50 µM
same,HC50: 50% lytic concentration for human erythrocytes,"human erythrocytes; red cells of human, 1 h",>50 µM
"H-VQQLTKRFSL-NH2 [P1, reference compound]",CC50,"[2]; 24 h, 6.25–50 μM range",> 50 µM
same,HC50: 50% lytic concentration for human erythrocytes,"human erythrocytes; 1 h at 37 °C, 0.1–50 μM range",>50 µM
MP-P3: mesoporphyrin IX coupled to the N-terminal amino group of peptide P3 (AGILKRW-amide) ({mesoporphyrin IX}-AGILKRW-NH2),"% Base (RFI), FD4 Permeability (monolayer integrity post-translocation)",bEnd.3 cell monolayers [1],10.2%
same,CC50,bEnd.3 cells,48.2 µM
same,IC50,"HIV-1NL4-3; 10 TCDI50 per well (approximate physiological conditions of HIV brain infection), TZM-bl cells, read-out: IC50 HIV inhibition, 10 TCDI50",1.38 ± 1.1 µM
same,IC50,"HIV-1NL4-3; 100 TCDI50 per well, TZM-bl cells, no-light, read-out: IC50 HIV inhibition, 100 TCDI50",16.1 ± 1.3 µM
same,TZM-bl cell viability (in words),TZM-bl cells,did not alter significantly
"P4-PP: protoporphyrin IX coupled to the Lys side-chain NH2 group of peptide P4 (AGILKRWK-amide) (AGILKRWK-NH2; also: protoporphyrin IX on a Lys side chain, Lys not given here)","% Base (RFI), FD4 Permeability (monolayer integrity post-translocation)",bEnd.3 cell monolayers [1],9.9%
same,CC50,bEnd.3 cells,> 50 µM
P6-MP: mesoporphyrin IX coupled to the C-terminal Lys side chain of peptide P6 (SGTQEEYK-amide) (SGTQEEYK(mesoporphyrin IX)-NH2),CC50,"bEnd.3 cells; read-out: CC50: 50% cytotoxic concentration toward bEnd.3 cells, 24 h, 6.25–50 μM range",> 50 µM
same,HC50: 50% lytic concentration for human erythrocytes,"human erythrocytes; 1 h at 37 °C, 0.1–50 μM range",>50 µM
PP-P3: protoporphyrin IX coupled to the N-terminal NH2 group of peptide P3 (AGILKRW-amide) ({protoporphyrin IX}-AGILKRW-NH2),"% Base (RFI), FD4 Permeability (monolayer integrity post-translocation)",bEnd.3 cell monolayers [1],7.2%
same,CC50,bEnd.3 cells,> 50 µM
